Measurements: patent publication US20240091303A1, “BIOMARKER-BASED TREATMENT OF FOCAL SEGMENTAL GLOMERULOSCLEROSIS AND DIABETIC KIDNEY DISEASE” (Goldfinch Bio, Inc., priority 2019, published 2024)

Assays:
[1] = system: Rac1 protein in the urine; assay: Urinary Rac1 analysis in naive rats following treatment with Compound 1; type: in vivo, Sprague Dawley rats; conditions: 10 mg/kg oral gavage once daily for 7 days
Protocol: The aim of this study was to measure the amount of Rac1 protein in the urine of healthy rats treated with Compound 1.
Six to seven weeks old Sprague Dawley rats were placed in metabolic cage housing for urine collection. Following two 24-hour periods of pre-dose urine collection, received one daily dose of Compound 1 administered by oral gavage at 10 mg/kg for 7 days; control animals were administered vehicle. Urine was collected for 24-hour periods beginning on the day of dosing inception and on days 3 and 6 of dosing.
Urine samples were concentrated as follows: 20 mL of urine was spun at 1500×g for 5 min to remove cell debris. Samples were concentrated using a Pierce protein concentrator with 10 kDa MWCO (Cat# 88516, Thermo Scientific, USA) and spun at 6000×g for 30 min at 4° C. using rotor JA 14.50 (Beckman Coulter, USA) in an AVANTI-JE centrifuge, (Beckman Coulter). A second centrifugation at 6000×g for 30 min at 4° C. was performed for samples that were concentrated to a volume that was >1 mL, to achieve a volume of <1 mL for all samples. The concentrated urine was collected and stored in −80° C. Next, the samples were analyzed for urinary Rac1 by ELISA (Cat# abx253084, Abbexa Ltd, UK) and urinary creatinine by ELISA (Cat# ab65340, Abcam, USA) following standard procedures according to the manufacturer's instructions. […]

[2] = system: Rac1 protein in the urine; assay: Urinary Rac1 analysis in DOCA-salt hypertensive rats following treatment with Compound 1; type: in vivo, Sprague Dawley rats
From the text: The aim of this study was to measure the amount of Rac1 protein in the urine of DOCA-salt hypertensive rats treated with Compound 1.
(§1) The DOCA-salt hypertensive rat model is a well-established model of mineralocorticoid hypertension with renal dysfunction leading to an FSGS phenotype, characterized by increased levels of urinary protein and albumin excretion. [Schenk et al., “The pathogenesis of DOCA-salt hypertension,” J. Pharmacol. Toxicol. Methods (May 1992) 27 (3):161-170; Gomez-Sanchez et al., “Mineralocorticoids, salt and high blood pressure,” Steroids (1996) 61:184-188.]
Six to seven weeks old Sprague Dawley rats were unilaterally nephrectomized. After one-week recovery, rats were implanted with a DOCA pellet (45 mg) and provided tap water containing 0.9% NaCl and 0.2% KCl (Day 1) for a 4 weeks treatment. […] Body weight was recorded daily throughout the study. […] Urine was collected for 24-hour periods beginning on day 17, day 20, day 24 and day 27, and urine protein and albumin were measured using standard methods.
For Rac1 analysis, urine samples were concentrated as follows: 20 mL of urine was spun at 1500×g for 5 min to remove cell debris. […] Next, the samples were analyzed for urinary Rac1 by ELISA (Cat# abx253084, Abbexa Ltd, UK) and urinary creatinine by ELISA (Cat# ab65340, Abcam, USA) following standard procedures according to the manufacturer's instructions. […]

[3] = system: Rac1 protein in the urine; assay: Urinary Rac1 analysis in healthy human subjects following treatment with Compound 1 (Phase 1, NCT03970122); type: in vivo
Protocol: The aim of this study was to measure the amount of Rac1 protein in the urine of healthy human subjects treated with Compound 1.
Healthy human subjects enrolled in a Phase 1 clinical study, “A First-In-Human, Phase 1, Placebo-Controlled Study to Evaluate the Safety, Tolerability, and Pharmacokinetics of Compound 1, a TRPC5 Channel Inhibitor, in Healthy Subjects and Subjects With Renal Impairment,” (NCT03970122) were administered a single, oral dose of either a placebo or 20 mg Compound 1 as a tablet. A urine sample was collected prior to administration of drug, and urine pools were then collected from 0-4 hours, 4-8 hours, 8-12 hours, 12-24 hours, 24-48 hours and 48-72 hours after dosing.
For Rac1 analysis, urine samples were concentrated as follows: 20 mL of urine was spun at 1500×g for 5 min to remove cell debris. Samples were concentrated using a Pierce protein concentrator with 10 kDa MWCO (Cat# 88516, Thermo Scientific, USA) and spun at 6000×g for 30 min at 4° C. using rotor JA 14.50 (Beckman Coulter, USA) in an AVANTI-JE centrifuge, (Beckman Coulter). A second centrifugation at 6000×g for 30 min at 4° C. was performed for samples that were concentrated to a volume that was >1 mL, to achieve a volume of <1 mL for all samples. The concentrated urine was collected and stored in −80° C. Next, the samples were analyzed for urinary Rac1 by ELISA (Cat# abx253084, Abbexa Ltd, UK) and urinary creatinine by ELISA (Cat# ab65340, Abcam, USA) following standard procedures according to the manufacturer's instructions. The amount of Rac1 in the urine was normalized to the amount of creatinine in the urine to control for the volume of urine produced.
Additional data was obtained from human subjects that were administered a single, oral dose of either a placebo, 5 mg of Compound 1 as a liquid suspension or 20, 40 or 80 mg of Compound 1 as tablets. A urine sample was collected prior to administration of drug, and urine pools were then collected from 0-4 hours, 4-8 hours, 8-12 hours, 12-24 hours, and for each 24 hour period from day 2 through day 7 after dosing. Each dose level comprised 2 placebo and 8 treated subjects.

ZDSD rats = assay: ZDSD model of diabetic nephropathy, albuminuria; type: in vivo, rat
From the text: The aim of this study was to evaluate the effects of the TRCPS inhibitor, Compound 1, to attenuate the development and/or progression of albuminuria in ZDSD model of diabetic nephropathy (DN).
The ZDSD model is an established model which recapitulates the major features of diabetes including impaired glucose metabolism, neuropathy, retinopathy and nephropathy [Peterson et al., “Characterization of the ZDSD Rat: A Translational Model for the Study of Metabolic Syndrome and Type 2 Diabetes,” J. Diabetes. Res. (2015), Article ID 487816, 10 pages; Peterson et aL, “The ZDSD rat: a novel model of diabetic nephropathy,” Am. J. Transl. Res. (2017) 9: 4236-4249].
Male ZDSD rats (Crown Bioscience, Indianapolis, IN., n=79) were maintained on standard rodent chow (Purina 5008) from weaning to 15 weeks of age. A diabetogenic diet (Research Diet D124668) was initiated and maintained for three weeks to synchronize development of hyperglycemia. Diabetogenic diet was replaced with Purina 5008 for remainder of the study. Animals were housed two per cage and maintained on a 12 hour light cycle (0600-1800). Room temperature was monitored daily and maintained at 70-74° F. Food and water were provided ad libitum for duration of the study. […]
Body weight was recorded weekly. Food consumption was recorded weekly during the treatment phase from week 0 through 12. […]

[4] = system: DOCA-salt hypertensive rats; assay: Effects of Compound 1 in DOCA-salt hypertensive rats (albuminuria); type: in vivo, Sprague Dawley rats; conditions: for urinary albumin excretion: week 2 to week 4, FIG. 7
From the text: The aim of this study was to evaluate the effects of the TRCPS inhibitor, Compound 1, to attenuate the development and/or progression of albuminuria in deoxycorticosterone acetate (DOCA)-salt hypertensive rats.
as §1
Six to seven weeks old Sprague Dawley rats were unilaterally nephrectomized; after one-week recovery, rats were implanted with a DOCA pellet (45 mg) and provided tap water containing 0.9% NaCl and 0.2% KCl (Day 1) for a 4 weeks treatment. On Day 1, DOCA-salt rats received one daily dose of Compound 1 administered by oral gavage at 3 mg/kg or 10 mg/kg for 4 weeks; control animals for DOCA treatment were administered vehicle. Sham animals, implanted with a silicone-water pellet, were given tap water and received oral administration of the vehicle. Body weight was recorded daily and proteinuria, albuminuria and arterial blood pressure were recorded every week.

COL4A4 knockout mice = assay: Effects of Compound 1 in COL4A4 knockout mice (Alport model); type: in vivo, mouse; conditions: 3 mg/kg or 10 mg/kg oral gavage once daily for 4 weeks, FIG. 8
From the text: The aim of this study was to evaluate the effects of the TRCPS inhibitor, Compound 1, to attenuate the development and/or progression of albuminuria in […] knockout mice.
The COL4A4 knockout mouse model is a well-established model of Alport disease, characterized by increased levels of urinary protein and albumin excretion. [Korstanje et al., “A mouse Col4a4 mutation causing Alport glomerulosclerosis with abnormal collagen α3α4α5(IV) trimers,” Kidney Int. (2014) 85:1461-1468].
Four to five weeks old COL4A4 knockout mice were received one daily dose of Compound 1 administered by oral gavage at 3 mg/kg or 10 mg/kg for 4 weeks; control animals were administered vehicle. Body weight was recorded daily and urinary protein and creatinine were recorded every week, and the ratio of urine protein to creatinine (UPCR) was calculated.

[5] = system: DOCA-salt hypertensive rats; assay: Effects of Compound 3 in DOCA-salt hypertensive rats (albuminuria), eplerenone control; type: in vivo, Sprague Dawley rats
Protocol: The aim of this study was to evaluate the effects of the TRCPS inhibitor, Compound 3, to attenuate the development and/or progression of albuminuria in deoxycorticosterone acetate (DOCA)-salt hypertensive rats.
Six to seven weeks old Sprague Dawley rats were unilaterally nephrectomized; after one-week recovery, rats were implanted with a DOCA pellet (45 mg) and provided tap water containing 0.9% NaCl and 0.2% KCl (Day 1) for a 4 weeks treatment. On Day 1, DOCA-salt rats received one daily dose of Compound 3 administered by oral gavage at 30 mg/kg for 4 weeks; control animals for DOCA treatment were administered vehicle or the mineralocorticoid receptor antagonist (MCRA) eplerenone by twice-daily oral gavage at 50 mg/kg. Sham animals, implanted with a silicone-water pellet, were given tap water and received SC administration of the vehicle. Body weight was recorded daily and proteinuria, albuminuria and arterial blood pressure were recorded every week.

[6] = system: DOCA-salt hypertensive rats; assay: Effects of cyclosporine A and tacrolimus in DOCA-salt hypertensive rats (albuminuria); type: in vivo, Sprague Dawley rats; set-up: urinary albumin excretion: dose or concentration left out as unconfirmed
Protocol: The DOCA-salt hypertensive rat model is a well-established model of mineralocorticoid hypertension with renal dysfunction leading to an FSGS phenotype, characterized by increased levels of urinary protein and albumin excretion. [Schenk et al., “The pathogenesis of DOCA-salt hypertension,” J. Pharmacol. Toxicol.
Six to seven weeks old Sprague Dawley rats were unilaterally nephrectomized; after one-week recovery, rats were implanted with a DOCA pellet (45 mg) and provided tap water containing 0.9% NaCl and 0.2% KCl (Day 1) for a 3 weeks treatment. […] Sham animals, implanted with a silicone-water pellet, were given tap water and received administration of the vehicle. Proteinuria and albuminuria were recorded every week, and body weight was recorded daily.

SMILES: O=c1[nH]ncc(N2CCc3c(ncnc3Oc3ccc(F)cc3C(F)(F)F)C2)c1Cl [Compound 1]
- adverse effects [1]: No adverse effects were observed
- urinary Rac1 levels (Rac1 normalized to creatinine) ([1]; vs pre-dose levels, significance at day 4 (p<0.01), FIG. 2): reduced urinary Rac1 levels
- adverse effects ([2]; 10 mg/kg oral gavage once daily for 7 days from day 21): No adverse effects were observed
- urinary Rac1 levels (Rac1 normalized to creatinine) ([2]; 10 mg/kg oral gavage once daily for 7 days from day 21, vs pre-dose levels, significance day 25 (p<0.01), FIG. 3): reduced urinary Rac1 levels
- urinary Rac1 levels (Rac1 normalized to creatinine) ([3]; healthy humans, single oral 20 mg tablet, vs pre-dose, significance by 8-12 hours after dosing (p<0.05), FIG. 4): reduced urinary Rac1 levels
- time urinary Rac1 levels remained reduced ([3]; humans, single 40 mg oral dose): up to 4 days
- time urinary Rac1 levels remained reduced ([3]; humans, single 80 mg oral dose): at least 7 days
- urinary Rac1 levels ([3]; humans, single oral dose 5 mg suspension or 20, 40, 80 mg tablets, significance by 8-12 hours with 40 mg and 80 mg doses vs pre-dose (p<0.05), FIG. 4B): reduced urinary Rac1 levels
- body weight (ZDSD rats; 3 mg/kg and 10 mg/kg oral gavage daily for 12 weeks, vs vehicle group, last two weeks of study): increase in body weight
- urinary albumin excretion (ZDSD rats; 3 or 10 mg/kg/d oral gavage 12 weeks, week 6 to week 12, significance at weeks 10 to 12 vs vehicle (p<0.001), FIG. 6): attenuated urinary albumin excretion
- urinary albumin excretion ([4]; 3 mg/kg oral daily, significant at week 3 vs DOCA-vehicle (p<0.05)): attenuated urinary albumin excretion
- urinary albumin excretion ([4]; 10 mg/kg oral daily, vs DOCA-vehicle, p<0.05 week 2, p<0.001 weeks 3 and 4): attenuated urinary albumin excretion
- body weight ([4]; DOCA vs DOCA and Compound 1, 3 or 10 mg/kg oral daily 4 weeks): no significant difference
- adverse effects ([4]; DOCA-salt rats, 3 or 10 mg/kg oral gavage once daily for 4 weeks): No adverse effects were observed
- urinary protein to creatinine ratio (UPCR) (COL4A4 knockout mice): no effect

SMILES: COC(=O)[C@@H]1CC2=CC(=O)CC[C@]2(C)[C@@]23O[C@@H]2C[C@@]2(C)[C@@H](CC[C@@]24CCC(=O)O4)[C@H]13 [eplerenone]
- body weight ([5]; DOCA vs DOCA plus Compound 3 (30 mg/kg oral daily) or eplerenone (50 mg/kg oral twice daily)): no significant difference
- urinary albumin excretion ([5]; eplerenone 50 mg/kg twice-daily oral gavage, week 4 vs DOCA-vehicle (p<0.05), FIG. 10): significantly attenuated urinary albumin excretion

SMILES: C=CC[C@@H]1/C=C(\C)C[C@H](C)C[C@H](OC)[C@H]2O[C@@](O)(C(=O)C(=O)N3CCCC[C@H]3C(=O)O[C@H](/C(C)=C/[C@@H]3CC[C@@H](O)[C@H](OC)C3)[C@H](C)[C@@H](O)CC1=O)[C@H](C)C[C@@H]2OC [tacrolimus, Tacrolimus]
- body weight ([6]; DOCA and tacrolimus 0.3 mg/kg oral gavage daily, first two weeks): significant loss of body weight
- urinary albumin excretion ([6]; tacrolimus 0.3/0.1 oral daily, weeks 2 and 3 vs DOCA-vehicle (p<0.05), FIG. 12): significantly attenuated urinary albumin excretion
- body weight after dose adjustment ([6]; tacrolimus dose adjusted from 0.3 mg/kg down to 0.1 mg/kg after two weeks of dosing): reversed the weight loss
